Data published in patent US20200405697A1, “Antitumor Agent” (Taiho Pharmaceutical Co., Ltd, priority 2017, published 2020).

Legend:
[1] = system: A549 (Human lung cancer cell line); assay: Effect of combination of sulfonamide compound and other antitumor agent (CellTiter-Glo, combination index): A549
Description: (§1) Each cell line was seeded at 90 L/well to a 96-well culture plate (Thermo Fisher Scientific, Inc.) according to the above tables. The cell-seeded plate was cultured in an incubator set to 37° C. and 500 CO2. On the day following seeding, varying concentrations of the sulfonamide compound and the other antitumor agent were added in combination to the cells. […] The serial dilutions of each compound, or DW was added at 5μL/well to the plate such that each compound and DW, or the sulfonamide compound and the other antitumor agent were combined. […] The plate after the addition was cultured at 37° C. for 3 days under 5% CO2 conditions.
(§2) Three days later, CellTiter-Glo(R) 2.0 Reagent (Promega Corporation) was added at 100 μL/well, and the amount of luminescence was measured using a plate reader EnSpire(R) Multimode Plate Reader (PerkinElmer Co., Ltd.).
(§3) An average value from 3 wells was calculated as to each drug condition from the obtained data, and cell survival rate normalized against control wells supplemented with the vehicle (DW) was calculated. A Fa (fractional inhibition) value was calculated by subtracting the cell survival rate from 1.

[2] = system: CFPAC-1 (Human pancreatic cancer cell line); assay: Effect of combination of sulfonamide compound and other antitumor agent (CellTiter-Glo, combination index): CFPAC-1;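 also: cells exposed to both agents together for 3 days, viability read by luminescence, normalized to vehicle-treated control wells, mean of triplicate wells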
Description: as §1, §2, §3

[3] = system: HCT116 (Human large intestine cancer cell line); assay: Effect of combination of sulfonamide compound and other antitumor agent (CellTiter-Glo, combination index): HCT116; type: cell-based
Description: as §1, §2, §3

[4] = Example Compound 14 874 nM + SCH900776 909 nM
[5] = Example Compound 14 1310 nM + SCH900776 1360 nM
[6] = Example Compound 14 1970 nM + SCH900776 2050 nM
[7] = Example Compound 14 2950 nM + SCH900776 3070 nM
[8] = Example Compound 209A 188 nM + SCH900776 909 nM
[9] = Example Compound 209A 282 nM + SCH900776 1360 nM
[10] = Example Compound 209A 635 nM + SCH900776 3070 nM
[11] = Example Compound 235A 231 nM + SCH900776 909 nM
[12] = Example Compound 235A 346 nM + SCH900776 1360 nM
[13] = Example Compound 235A 520 nM + SCH900776 2050 nM
[14] = Example Compound 235A 780 nM + SCH900776 3070 nM
[15] = Example Compound 235A 1170 nM + SCH900776 4610 nM
[16] = Example Compound 5 466 nM + SCH900776 253 nM
[17] = Example Compound 5 700 nM + SCH900776 379 nM
[18] = Example Compound 14 925 nM + SCH900776 253 nM
[19] = Example Compound 14 1390 nM + SCH900776 380 nM
[20] = Example Compound 14 2080 nM + SCH900776 569 nM
[21] = Example Compound 209A 226 nM + SCH900776 253 nM
[22] = Example Compound 209A 508 nM + SCH900776 568 nM
[23] = Example Compound 235A 321 nM + SCH900776 253 nM
[24] = Example Compound 235A 481 nM + SCH900776 379 nM
[25] = Example Compound 235A 722 nM + SCH900776 569 nM
[26] = Example Compound 14 4420 nM + Gemcitabine 8.38 nM
[27] = Example Compound 209A 635 nM + Gemcitabine 5.60 nM
[28] = Example Compound 209A 952 nM + Gemcitabine 8.39 nM
[29] = Example Compound 235A 780 nM + Gemcitabine 5.60 nM
[30] = Example Compound 235A 1170 nM + Gemcitabine 8.40 nM
[31] = Example Compound 5 1050 nM + Gemcitabine 5.28 nM
[32] = Example Compound 14 2080 nM + Gemcitabine 5.28 nM
[33] = Example Compound 14 3120 nM + Gemcitabine 7.92 nM
[34] = Example Compound 209A 508 nM + Gemcitabine 5.28 nM
[35] = Example Compound 235A 722 nM + Gemcitabine 5.28 nM
[36] = Example Compound 5 567 nM + Prexasertib 10.7 nM
[37] = Example Compound 5 851 nM + Prexasertib 16.1 nM
[38] = Example Compound 14 1000 nM + Prexasertib 7.14 nM
[39] = Example Compound 14 1500 nM + Prexasertib 10.7 nM
[40] = Example Compound 14 2250 nM + Prexasertib 16.1 nM
[41] = Example Compound 209A 187 nM + Prexasertib 7.13 nM
[42] = Example Compound 209A 281 nM + Prexasertib 10.7 nM
[43] = Example Compound 209A 421 nM + Prexasertib 16.1 nM
[44] = HCT116, Example Compound 235A 317 nM combined with Prexasertib 7.15 nM, molar ratio 1:0.02255
[45] = HCT116, Example Compound 235A 475 nM combined with Prexasertib 10.7 nM, molar ratio 1:0.02255
[46] = HCT116, Example Compound 235A 712 nM combined with Prexasertib 16.1 nM, molar ratio 1:0.02255
[47] = Example Compound 14 874 nM + Prexasertib 1.97 nM
[48] = Example Compound 14 1310 nM + Prexasertib 2.96 nM
[49] = Example Compound 14 1970 nM + Prexasertib 4.45 nM
[50] = Example Compound 209A 188 nM + Prexasertib 1.97 nM
[51] = Example Compound 209A 282 nM + Prexasertib 2.96 nM
[52] = Example Compound 235A 231 nM + Prexasertib 1.97 nM
[53] = Example Compound 235A 346 nM + Prexasertib 2.96 nM
[54] = Example Compound 235A 520 nM + Prexasertib 4.44 nM
[55] = Example Compound 5 311 nM + Prexasertib 1.89 nM
[56] = Example Compound 5 466 nM + Prexasertib 2.84 nM
[57] = Example Compound 5 700 nM + Prexasertib 4.26 nM
[58] = Example Compound 14 616 nM + Prexasertib 1.89 nM
[59] = Example Compound 14 925 nM + Prexasertib 2.84 nM
[60] = Example Compound 14 1390 nM + Prexasertib 4.27 nM
[61] = Example Compound 209A 151 nM + Prexasertib 1.90 nM
[62] = Example Compound 209A 226 nM + Prexasertib 2.84 nM
[63] = Example Compound 235A 214 nM + Prexasertib 1.89 nM
[64] = Example Compound 235A 321 nM + Prexasertib 2.84 nM
[65] = Example Compound 235A 481 nM + Prexasertib 4.26 nM

Cn1cc(-c2cnn3c(N)c(Br)c([C@@H]4CCCNC4)nc23)cn1 [SCH900776]
CI value [1, 4]: 0.194 | Fa value [1, 4]: 0.6512 | CI value [1, 5]: 0.184 | Fa value [1, 5]: 0.7883 | CI value [1, 6]: 0.191 | Fa value [1, 6]: 0.8714 | CI value [1, 7]: 0.271 | Fa value [1, 7]: 0.8814 | CI value [1, 8]: 0.180 | Fa value [1, 8]: 0.6553 | CI value [1, 9]: 0.170 | Fa value [1, 9]: 0.7965 | CI value [1, 10]: 0.273 | Fa value [1, 10]: 0.8744 | CI value [1, 11]: 0.262 | Fa value [1, 11]: 0.6135 | CI value [1, 12]: 0.280 | Fa value [1, 12]: 0.7038 | CI value [1, 13]: 0.275 | Fa value [1, 13]: 0.8035 | CI value [1, 14]: 0.275 | Fa value [1, 14]: 0.8771 | CI value [1, 15]: 0.430 | Fa value [1, 15]: 0.8705 | CI value [2, 16]: 0.283 | Fa value [2, 16]: 0.6428 | CI value [2, 17]: 0.283 | Fa value [2, 17]: 0.7803 | CI value [2, 18]: 0.465 | Fa value [2, 18]: 0.4714 | CI value [2, 19]: 0.322 | Fa value [2, 19]: 0.7231 | CI value [2, 20]: 0.409 | Fa value [2, 20]: 0.7671 | CI value [2, 21]: 0.385 | Fa value [2, 21]: 0.5579 | CI value [2, 22]: 0.474 | Fa value [2, 22]: 0.7649 | CI value [2, 23]: 0.474 | Fa value [2, 23]: 0.4978 | CI value [2, 24]: 0.382 | Fa value [2, 24]: 0.7223 | CI value [2, 25]: 0.484 | Fa value [2, 25]: 0.7722

Nc1ccn([C@@H]2O[C@H](CO)[C@@H](O)C2(F)F)c(=O)n1 [Gemcitabine, gemcitabine]
CI value [1, 26]: 0.752 | Fa value [1, 26]: 0.8565 | CI value [1, 27]: 0.792 | Fa value [1, 27]: 0.7031 | CI value [1, 28]: 0.791 | Fa value [1, 28]: 0.8749 | CI value [1, 29]: 0.844 | Fa value [1, 29]: 0.6511 | CI value [1, 30]: 0.714 | Fa value [1, 30]: 0.8624 | CI value [2, 31]: 0.788 | Fa value [2, 31]: 0.6974 | CI value [2, 32]: 0.756 | Fa value [2, 32]: 0.6749 | CI value [2, 33]: 0.752 | Fa value [2, 33]: 0.7790 | CI value [2, 34]: 0.736 | Fa value [2, 34]: 0.6998 | CI value [2, 35]: 0.722 | Fa value [2, 35]: 0.6762

COc1cccc(OCCCN)c1-c1cc(Nc2cnc(C#N)cn2)n[nH]1 [Prexasertib, prexasertib]
CI value [3, 36]: 0.289 | Fa value [3, 36]: 0.7563 | CI value [3, 37]: 0.180 | Fa value [3, 37]: 0.9499 | CI value [3, 38]: 0.535 | Fa value [3, 38]: 0.3054 | CI value [3, 39]: 0.208 | Fa value [3, 39]: 0.8469 | CI value [3, 40]: 0.174 | Fa value [3, 40]: 0.9453 | CI value [3, 41]: 0.792 | Fa value [3, 41]: 0.1703 | CI value [3, 42]: 0.230 | Fa value [3, 42]: 0.8191 | CI value [3, 43]: 0.173 | Fa value [3, 43]: 0.9441 | CI value [3, 44]: 0.557 | Fa value [3, 44]: 0.3131 | CI value [3, 45]: 0.224 | Fa value [3, 45]: 0.8595 | CI value [3, 46]: 0.197 | Fa value [3, 46]: 0.9459 | CI value [1, 47]: 0.277 | Fa value [1, 47]: 0.4973 | CI value [1, 48]: 0.193 | Fa value [1, 48]: 0.7864 | CI value [1, 49]: 0.177 | Fa value [1, 49]: 0.8986 | CI value [1, 50]: 0.258 | Fa value [1, 50]: 0.5015 | CI value [1, 51]: 0.189 | Fa value [1, 51]: 0.7685 | CI value [1, 52]: 0.331 | Fa value [1, 52]: 0.4315 | CI value [1, 53]: 0.191 | Fa value [1, 53]: 0.7784 | CI value [1, 54]: 0.174 | Fa value [1, 54]: 0.8915 | CI value [2, 55]: 0.579 | Fa value [2, 55]: 0.3644 | CI value [2, 56]: 0.413 | Fa value [2, 56]: 0.6946 | CI value [2, 57]: 0.525 | Fa value [2, 57]: 0.7564 | CI value [2, 58]: 0.886 | Fa value [2, 58]: 0.2455 | CI value [2, 59]: 0.452 | Fa value [2, 59]: 0.6771 | CI value [2, 60]: 0.514 | Fa value [2, 60]: 0.7725 | CI value [2, 61]: 0.735 | Fa value [2, 61]: 0.3163 | CI value [2, 62]: 0.558 | Fa value [2, 62]: 0.6872 | CI value [2, 63]: 0.645 | Fa value [2, 63]: 0.3469 | CI value [2, 64]: 0.344 | Fa value [2, 64]: 0.6687 | CI value [2, 65]: 0.372 | Fa value [2, 65]: 0.7578
